Measurements reported in patent US20110152267A1, “Compositions and Methods for Treating Hyperproliferative Disorders” (Texas Tech University System, priority 2009, published 2011).

Assays:
Format in all cases: cell-based, human
Conditions in all cases: 96 h
[1] = system: U-266 Multiple Myeloma cell line; assay: DIMSCAN cytotoxicity, fenretinide + L-threo-sphinganines 3:1 (Example B3)
Method: (§1) Cytotoxicity Assay—Once again, cytotoxicity is determined using the DIMSCAN assay system (R. Proffitt et al., Cytometry 24, 204-213 (1996); T. Frgala et al., Mol Cancer Ther. 6:886-97, 2007). The system employs digital imaging microscopy to quantify viable cells, which selectively accumulate fluorescein diacetate to become brightly fluorescent. The system is capable of measuring cytotoxicity over a 4-5 log dynamic range by quenching the residual fluorescence of dead and dying cells with eosin Y and quantifying the total fluorescence of viable cells using digital thresholding. Measured fluorescence is directly proportionate to the number of viable cells. A comparison of the total fluorescence of a drug-treated cell population to the fluorescence of a similar number of untreated cells yields a survival fraction. In brief, 2000 to 10,000 cells/well (depending on size and growth rates) are replicate plated into 60 wells of a 96-well tissue culture plate in 0.1 mL of whole medium and allowed to attach overnight. Drug(s) are then added in 0.05 mL of whole medium to the final concentrations indicated. Drugs (fenretinide, and various chain length L-threo-sphinganines) were tested both as single agents and in a 3:1 ratio of fenretinide:sphinganine. C18-L-threo-sphinganine, or “safingol,” was also tested and results shown for reference. There are 12 wells treated per drug concentration. Twelve wells receive drug vehicle-only to the appropriate final concentration and serve as controls for the plate. Cells are incubated for 96 hours at 37° C. in ambient air with 5% CO2. Fluorescein diacetate is then added to each well in 0.05 mL media to a final concentration of 8 microgram/mL. Cells are incubated for a further 15 minutes at 37° C. and 0.03 mL of 0.5% eosin Y is added to each well. Total fluorescence of viable cells is then measured by digital imaging microscopy. Results were graphed as the ratio of the fluoresecence of drug-treated wells to non-drug treated control wells (i.e., Survival Fraction). All tests were performed at least twice. Representative results are shown.
(§2) The Combination Index (CI) is a term to describe mathematical modeling of the pharmacologic effects on cytotoxicity (cell death) of two drugs in combination based. Cytotoxic “synergy” is defined as a cell death affect which is greater than would be expected from a simple product of the single agent cytotoxicities alone (i.e. an “additive” effect). By Chou-Talalay analysis, a CI<0.9 on a Fraction Affected (“Fa”, i.e. fraction of cells killed) indicates synergy, with smaller numbers indicating greater synergy; a CI of 0.9-1.1 signifies an additive or near-additive effect; and a CI>1.1 means the drug combination is antagonistic.
Fenretinide and L-threo-sphinganines tested in human Multiple Myeloma (a cancer of the blood and bone marrow) cell line, U-266.

[2] = system: A-172 Glioblastoma multiforme cell line; assay: DIMSCAN cytotoxicity, fenretinide + L-threo-sphinganines 3:1 (Example B4); design: key to CI (Combination Index): Chou-Talalay CI: <0.9 synergy, 0.9-1.1 additive, >1.1 antagonism
Method: as §1, §2
Fenretinide and L-threo-sphinganines tested in human Glioblastoma multiforme (brain cancer) cell line, A-172.

[3] = system: T98G Glioblastoma multiforme cell line; assay: DIMSCAN cytotoxicity, fenretinide + L-threo-sphinganines 3:1 (Example B6)
Method: as §1, §2
Fenretinide and L-threo-sphinganines tested in human Glioblastoma multiforme (brain cancer) cell line, T98G.

[4] = system: SJ-G2 Glioblastoma cell line; assay: DIMSCAN cytotoxicity, fenretinide + L-threo-sphinganines 3:1 (Example B8)
Method: as §1, §2
Fenretinide and L-threo-sphinganines tested in human Glioblastoma (brain cancer) cell line, SJ-G2.

[5] = system: HT-29 colorectal adenocarcinoma cell line; assay: DIMSCAN cytotoxicity, fenretinide + L-threo-sphinganines 3:1 (Example B10)
Method: as §1, §2
Fenretinide and L-threo-sphinganines tested in human colorectal adenocarcinoma (colon cancer) cell line, HT-29.

[6] = system: A-2058 melanoma cell line; assay: DIMSCAN cytotoxicity, fenretinide + L-threo-sphinganines 3:1 (Example B11)
Method: as §1, §2
Fenretinide and L-threo-sphinganines tested in human melanoma (skin cancer) cell line, A-2058.

[7] = system: A-549 lung adenocarcinoma cell line; assay: DIMSCAN cytotoxicity, fenretinide + L-threo-sphinganines 3:1 (Example B13)
Method: as §1, §2
Fenretinide and L-threo-sphinganines tested in human lung adenocarcinoma (lung cancer) cell line, A-549.

[8] = system: OVCAR-8 ovarian adenocarcinoma cell line; assay: DIMSCAN cytotoxicity, fenretinide + L-threo-sphinganines 3:1 (Example B15); design: key to CI (Combination Index): Chou-Talalay CI: <0.9 synergy, 0.9-1.1 additive, >1.1 antagonism
Method: as §1, §2
Fenretinide and L-threo-sphinganines tested in human ovarian adenocarcinoma (ovarian cancer) cell line, OVCAR-8.

[9] = 4-HPR 1.5 μM + L-threo-sphinganine 0.5 μM
[10] = 4-HPR 3 μM + L-threo-sphinganine 1 μM
[11] = 4-HPR 6 μM + L-threo-sphinganine 2 μM
[12] = 4-HPR 9 μM + L-threo-sphinganine 3 μM

## CCCCCCCCCCCCCCC[C@H](O)[C@@H](N)CO [C18, (2S,3S)-2-amino-1,3-octadecanediol, reference compound]
[1]; [9]
  CI (Combination Index): 1.4
  Fa (fraction affected): 0.048
[1]; [10]
  CI (Combination Index): 1.5
  Fa (fraction affected): 0.268
[1]; [11]
  CI (Combination Index): 1.3
  Fa (fraction affected): 0.883
[1]; [12]
  CI (Combination Index): 0.8
  Fa (fraction affected): 0.999
[2]; [9]
  CI (Combination Index): 1.3
  Fa (fraction affected): 0.233
[2]; [10]
  CI (Combination Index): 0.5
  Fa (fraction affected): 0.803
[2]; [11]
  CI (Combination Index): 0.3
  Fa (fraction affected): 0.956
[2]; [12]
  CI (Combination Index): 0.1
  Fa (fraction affected): 0.993
[3]; [9]
  CI (Combination Index): 0.786
  Fa (fraction affected): 0.657
[3]; [10]
  CI (Combination Index): 1.316
  Fa (fraction affected): 0.701
[3]; [11]
  CI (Combination Index): 0.767
  Fa (fraction affected): 0.906
[3]; [12]
  CI (Combination Index): 0.023
  Fa (fraction affected): 0.999
[4]; [9]
  CI (Combination Index): 0.7
  Fa (fraction affected): 0.437
[4]; [10]
  CI (Combination Index): 0.7
  Fa (fraction affected): 0.728
[4]; [11]
  CI (Combination Index): 0.5
  Fa (fraction affected): 0.950
[4]; [12]
  CI (Combination Index): 0.6
  Fa (fraction affected): 0.958
[5]; [9]
  CI (Combination Index): 0.9
  Fa (fraction affected): 0.243
[5]; [10]
  CI (Combination Index): 0.7
  Fa (fraction affected): 0.756
[5]; [11]
  CI (Combination Index): 0.5
  Fa (fraction affected): 0.983
[5]; [12]
  CI (Combination Index): 0.3
  Fa (fraction affected): 0.999
[6]; [9]
  CI (Combination Index): >1
  Fa (fraction affected): 0.001
[6]; [10]
  CI (Combination Index): >1
  Fa (fraction affected): 0.01
[6]; [11]
  CI (Combination Index): >1
  Fa (fraction affected): 0.099
[6]; [12]
  CI (Combination Index): 1.22
  Fa (fraction affected): 0.815
[7]; [9]
  CI (Combination Index): 1.0
  Fa (fraction affected): 0.012
[7]; [10]
  CI (Combination Index): 1.0
  Fa (fraction affected): 0.05
[7]; [11]
  CI (Combination Index): 1.0
  Fa (fraction affected): 0.200
[7]; [12]
  CI (Combination Index): 0.6
  Fa (fraction affected): 0.700
[8]; [9]
  CI (Combination Index): 1.5
  Fa (fraction affected): 0.122
[8]; [10]
  CI (Combination Index): 1.5
  Fa (fraction affected): 0.202
[8]; [11]
  CI (Combination Index): 0.7
  Fa (fraction affected): 0.536
[8]; [12]
  CI (Combination Index): 0.5
  Fa (fraction affected): 0.761

## CCCCCCCCCCCCCC[C@H](O)[C@@H](N)CO [C17, (2S,3S)-2-amino-1,3-heptadecanediol]
[1]; [9]
  CI (Combination Index): 1.3
  Fa (fraction affected): 0.134
[1]; [10]
  CI (Combination Index): 1.5
  Fa (fraction affected): 0.35
[1]; [11]
  CI (Combination Index): 0.9
  Fa (fraction affected): 0.901
[1]; [12]
  CI (Combination Index): 0.4
  Fa (fraction affected): 0.991
[2]; [9]
  CI (Combination Index): 1.4
  Fa (fraction affected): 0.232
[2]; [10]
  CI (Combination Index): 1.4
  Fa (fraction affected): 0.529
[2]; [11]
  CI (Combination Index): 0.2
  Fa (fraction affected): 0.996
[2]; [12]
  CI (Combination Index): >0.1
  Fa (fraction affected): 1.000
[3]; [9]
  CI (Combination Index): 1.7
  Fa (fraction affected): 0.447
[3]; [10]
  CI (Combination Index): 0.3
  Fa (fraction affected): 0.887
[3]; [11]
  CI (Combination Index): 0.3
  Fa (fraction affected): 0.944
[3]; [12]
  CI (Combination Index): 0.2
  Fa (fraction affected): 0.980
[4]; [9]
  CI (Combination Index): 0.6
  Fa (fraction affected): 0.462
[4]; [10]
  CI (Combination Index): 0.4
  Fa (fraction affected): 0.874
[4]; [11]
  CI (Combination Index): 0.6
  Fa (fraction affected): 0.928
[4]; [12]
  CI (Combination Index): 0.8
  Fa (fraction affected): 0.941
[5]; [9]
  CI (Combination Index): 1.1
  Fa (fraction affected): 0.112
[5]; [10]
  CI (Combination Index): 0.8
  Fa (fraction affected): 0.661
[5]; [11]
  CI (Combination Index): 0.6
  Fa (fraction affected): 0.974
[5]; [12]
  CI (Combination Index): 0.5
  Fa (fraction affected): 0.993
[6]; [9]
  CI (Combination Index): 0.9
  Fa (fraction affected): 0.211
[6]; [10]
  CI (Combination Index): 1.2
  Fa (fraction affected): 0.359
[6]; [11]
  CI (Combination Index): 1.4
  Fa (fraction affected): 0.664
[6]; [12]
  CI (Combination Index): 1.5
  Fa (fraction affected): 0.849
[7]; [9]
  CI (Combination Index): 1.6
  Fa (fraction affected): 0.01
[7]; [10]
  CI (Combination Index): 1.5
  Fa (fraction affected): 0.010
[7]; [11]
  CI (Combination Index): 1.0
  Fa (fraction affected): 0.010
[7]; [12]
  CI (Combination Index): 1.1
  Fa (fraction affected): 0.010
[8]; [9]
  CI (Combination Index): 0.2
  Fa (fraction affected): 0.467
[8]; [10]
  CI (Combination Index): 0.4
  Fa (fraction affected): 0.519
[8]; [11]
  CI (Combination Index): 0.5
  Fa (fraction affected): 0.676
[8]; [12]
  CI (Combination Index): 0.4
  Fa (fraction affected): 0.903

## CCCCCCCCCCCCCCCCCC[C@H](O)[C@@H](N)CO [C21]
[1]; [9]
  CI (Combination Index): 1.4
  Fa (fraction affected): 0.225
[1]; [10]
  CI (Combination Index): 1.5
  Fa (fraction affected): 0.658
[1]; [11]
  CI (Combination Index): 0.6
  Fa (fraction affected): 0.996
[1]; [12]
  CI (Combination Index): >0.1
  Fa (fraction affected): 1
[2]; [9]
  CI (Combination Index): 8.8
  Fa (fraction affected): 0.006
[2]; [10]
  CI (Combination Index): 1.6
  Fa (fraction affected): 0.537
[2]; [11]
  CI (Combination Index): 0.8
  Fa (fraction affected): 0.996
[2]; [12]
  CI (Combination Index): >0.1
  Fa (fraction affected): 1.000
[3]; [9]
  CI (Combination Index): 1.2
  Fa (fraction affected): 0.574
[3]; [10]
  CI (Combination Index): 1.0
  Fa (fraction affected): 0.805
[3]; [11]
  CI (Combination Index): 1.8
  Fa (fraction affected): 0.832
[3]; [12]
  CI (Combination Index): 0.1
  Fa (fraction affected): 0.999
[4]; [9]
  CI (Combination Index): 1.5
  Fa (fraction affected): 0.118
[4]; [10]
  CI (Combination Index): 1.9
  Fa (fraction affected): 0.299
[4]; [11]
  CI (Combination Index): 1.5
  Fa (fraction affected): 0.809
[4]; [12]
  CI (Combination Index): 0.5
  Fa (fraction affected): 0.995
[5]; [9]
  CI (Combination Index): 1.2
  Fa (fraction affected): 0.149
[5]; [10]
  CI (Combination Index): 1.2
  Fa (fraction affected): 0.630
[5]; [11]
  CI (Combination Index): 1.8
  Fa (fraction affected): 0.857
[5]; [12]
  CI (Combination Index): 2.3
  Fa (fraction affected): 0.918
[6]; [9]
  CI (Combination Index): 0.7
  Fa (fraction affected): 0.016
[6]; [10]
  CI (Combination Index): 1.4
  Fa (fraction affected): 0.016
[6]; [11]
  CI (Combination Index): 1.9
  Fa (fraction affected): 0.333
[6]; [12]
  CI (Combination Index): 1.9
  Fa (fraction affected): 0.955
[7]; [9]
  CI (Combination Index): 0.9
  Fa (fraction affected): 0.078
[7]; [10]
  CI (Combination Index): 2.6
  Fa (fraction affected): 0.044
[7]; [11]
  CI (Combination Index): 0.8
  Fa (fraction affected): 0.51
[7]; [12]
  CI (Combination Index): 0.4
  Fa (fraction affected): 0.972
[8]; [9]
  CI (Combination Index): 0.1
  Fa (fraction affected): 0.626
[8]; [10]
  CI (Combination Index): 0.1
  Fa (fraction affected): 0.870
[8]; [11]
  CI (Combination Index): 0.1
  Fa (fraction affected): 0.977
[8]; [12]
  CI (Combination Index): 0.2
  Fa (fraction affected): 0.975
